Results on five compounds are retold here after patent US5514561A, “Fluorogenic and chromogenic β-lactamase substrates” (priority 1994, dated 1996).

What all share (format): biochemical
Test [1] has as its target 104(LYS) mutant β-lactamase (Escherichia coli, UniProt P62593, E102K). In words: Kinetic rate determinations, 104(LYS) mutant. The method, then:
(§1) The fluorogenic β-lactamase substrates of the invention were tested for their ability to be hydrolyzed by β-lactamase with release of the fluorescent moiety. The kinetics of hydrolysis were compared to the kinetics of hydrolysis of nitrocefin. The two fluorogenic substrates tested were hydrolyzed using three mutant β-lactamases found in cephem resistant bacteria to compare the rate of hydrolysis with the wildtype enzyme, TEM-1 (Ambler. Phil. Trans. R. Soc. Lond. 289: 321 (1980); Sougakoff et al. Reviews of Infectious Diseases 10: 879 (1988)).
(§2) Nitrocefin kinetics were determined using a Hewlett-Packard 854A spectrophotometer with Chem Station programing, Hewlett-Packard Company Scientific Instruments Division (Palo Alto, Calif.). The data were fit to an unweighted Michaelis-Menten equation using the non-linear data regression package ENZFITTER (Elsevier-BIOSOFT, Cambridge, United Kingdom). The buffer used for all dilutions was 9:1 (50 mM phosphate buffer pH 7.2: DMSO), designated buffer A. The rate of hydrolysis for nitrocefin was determined at a range of 504-514 nm for 300 sec. […] Rates were determined using from 1-0.004 mL of nitrocefin solution diluted to 1 mL total with buffer A. Rate determining experiments were done using 9 different concentrations of the nitrocefin solution and a 1:25 dilution of each enzyme in buffer A.
(§3) Fluorescence kinetics were determined on a Perkin-Elmer LS-5 fluorescence spectrometer Perkin-Elmer Corp. (Norwalk, Conn.) for duration of 300 sec. […] Rates were determined using the following solutions: a) 10.8 mg cephalothin AMC carbamate dissolved in mL of DMSO diluted to 15 mL with buffer A, and b) 11.9 mg cefotaxime AMC carbamate dissolved in 1 mL DMSO diluted to 15 mL with buffer A. For each experiment 0.1 mL of substrate solution was diluted to 3 mL with buffer A. To this was added 0.03 mL of enzyme solution containing (25:1 dilution of the enzyme in buffer A). Fluorescence was read for 300 sec. The rates were determined for both substrates at this concentration for all enzymes tested.

Test [2] has as its target 237(SER) mutant β-lactamase (Escherichia coli, UniProt P62593, A235S). In words: Kinetic rate determinations, 237(SER) mutant. Here is the method:
as §1, §2, §3

For test [3], the target named is 238(SER) mutant β-lactamase (Escherichia coli, UniProt P62593, G236S). In words: Kinetic rate determinations, 238(SER) mutant. The method, then: as §1, §2, §3
Test [4] deals with wildtype enzyme, TEM-1 β-lactamase (Escherichia coli, UniProt P62593). In words: Kinetic rate determinations, wild type enzyme. As to conditions: 300 sec, ranking among enzymes; for rate of cleavage (hydrolysis) of fluorogenic substrate: wild type enzyme, fluorescence 365/440 nm. Here is the method: as §1, §2, §3
Test [5] has as its system β-lactamase (wild type and all mutant enzymes). In words: Kinetic rate determinations, fluorogenic substrates, all enzymes. As to conditions: by the wild type and all mutant enzymes. The method, then:
as §1
Fluorescence kinetics were determined on a Perkin-Elmer LS-5 fluorescence spectrometer Perkin-Elmer Corp. (Norwalk, Conn.) for duration of 300 sec. Excitation and emission wavelengths were set to 365 and 440 nm with slits of 10 and 3 nm, respectively. Buffer A was used for all dilutions. […] Rates were determined using the following solutions: a) 10.8 mg cephalothin AMC carbamate dissolved in mL of DMSO diluted to 15 mL with buffer A, and b) 11.9 mg cefotaxime AMC carbamate dissolved in 1 mL DMSO diluted to 15 mL with buffer A. For each experiment 0.1 mL of substrate solution was diluted to 3 mL with buffer A. To this was added 0.03 mL of enzyme solution containing (25:1 dilution of the enzyme in buffer A). Fluorescence was read for 300 sec. The rates were determined for both substrates at this concentration for all enzymes tested.

A further test relates to β-lactamase. In words: Cleavage of chromogenic substrates, diazonium salt added to reaction mixture. As to conditions: releases 3-aminoindole. From the text:
Cleavage of the β-lactam ring of cefotaxime indole carbamate or cephalothin indole carbamate produces a cascade of electron migration which releases 3-aminoindole.

With `CO/N=C(\C(=O)N[C@@H]1C(=O)N2C(C(=O)O)=C(COC(=O)Nc3ccc4c(C)cc(=O)oc4c3)CS[C@H]12)c1csc(N)n1` [cefotaxime AMC carbamate, Cefotaxime AMC Carbamate], the “increase in the rate of hydrolysis in comparison to wild type β-lactamase” value in test [1] (104(LYS) mutation, fluorescence) was “greater than 100%”; in test [3] (238(SER) mutation, fluorescence), “greater than 100%”. For the same compound, in test [2] (fluorescence), the “increase in hydrolysis rate in comparison to wild type β-lactamase” value came to 60%. In test [4], the “rate of cleavage (hydrolysis) of fluorogenic substrate” value is on record as “cleaved most slowly”.

Take `O=C(Cc1cccs1)N[C@@H]1C(=O)N2C(C(=O)O)=C(/C=C/c3ccc([N+](=O)[O-])cc3[N+](=O)[O-])CS[C@H]12` [nitrocefin, Nitrocefin, reference compound]: the “rate of hydrolysis for nitrocefin” value was “then the 104(LYS) and 238(SER) mutants” in test [1] (104(LYS) mutant, spectrophotometric 504-514 nm, 300 sec, ranking among enzymes); “fastest” in test [2] (spectrophotometric 504-514 nm, 300 sec, ranking among enzymes); “then the 104(LYS) and 238(SER) mutants” in test [3] (238(SER) mutant, spectrophotometric 504-514 nm, 300 sec, ranking among enzymes); “followed by wild type” in test [4] (wild type, spectrophotometric 504-514 nm).

Regarding `Cc1cc(=O)oc2cc(NC(=O)OCC3=C(C(=O)O)N4C(=O)[C@@H](NC(=O)Cc5cccs5)[C@H]4SC3)ccc12` [cephalothin AMC carbamate, Cephalothin AMC Carbamate], the “rate of cleavage relative to that of the 237(SER) enzyme” value in test [1] (104(LYS) mutant, fluorescence 365/440 nm, 300 sec) is “about half that of the 237(SER) enzyme”. The “rate of cleavage (hydrolysis) of fluorogenic substrate” value in test [2] (fluorescence 365/440 nm, 300 sec, ranking among enzymes) is “cleaved fastest”; in test [3] (238(SER) mutant, fluorescence 365/440 nm, 300 sec, ranking among enzymes), “most slowly”; in test [4] it was “followed closely by the wild type enzyme”. For the same compound, the “rate of cleavage compared between the two fluorogenic substrates” value in test [5] is “cleaved faster than the cefotaxime AMC carbamate”.

As for `CO/N=C(\C(=O)N[C@@H]1C(=O)N2C(C(=O)O)=C(COC(=O)Nc3c[nH]c4ccccc34)CS[C@H]12)c1csc(N)n1` [cefotaxime indole carbamate, Cefotaxime Indole Carbamate], the “product after cleavage with β-lactamase and addition of various diazonium salts” value in the test on β-lactamase is recorded as “produced a colored precipitate”.

Take `O=C(Cc1cccs1)N[C@@H]1C(=O)N2C(C(=O)O)=C(COC(=O)Nc3c[nH]c4ccccc34)CS[C@H]12` [cephalothin indole carbamate, Cephalothin Aminoindole Carbamate]: in the test on β-lactamase, the “product after cleavage with β-lactamase and addition of various diazonium salts” value was “produced a colored precipitate”.
